Measured values taken from US8946215B2, “Hydroxy-substituted imidazo[1,2-a]pyridinecarboxamides and their use” (Bayer Pharma Aktiengesellschaft, priority 2012, dated 2015).
Structures can show the parent of a compound that is named as a salt.

These compounds were tested against T1, recombinant guanylate cyclase reporter cell line (Rattus norvegicus, UniProt P19686+P20595) (assay: Action on recombinant guanylate cyclase reporter cell line). Conditions: in some cases mean values obtained from individual determinations.
T1 construct: expressed in transfected cells
T1 sequence (P20595 1-619): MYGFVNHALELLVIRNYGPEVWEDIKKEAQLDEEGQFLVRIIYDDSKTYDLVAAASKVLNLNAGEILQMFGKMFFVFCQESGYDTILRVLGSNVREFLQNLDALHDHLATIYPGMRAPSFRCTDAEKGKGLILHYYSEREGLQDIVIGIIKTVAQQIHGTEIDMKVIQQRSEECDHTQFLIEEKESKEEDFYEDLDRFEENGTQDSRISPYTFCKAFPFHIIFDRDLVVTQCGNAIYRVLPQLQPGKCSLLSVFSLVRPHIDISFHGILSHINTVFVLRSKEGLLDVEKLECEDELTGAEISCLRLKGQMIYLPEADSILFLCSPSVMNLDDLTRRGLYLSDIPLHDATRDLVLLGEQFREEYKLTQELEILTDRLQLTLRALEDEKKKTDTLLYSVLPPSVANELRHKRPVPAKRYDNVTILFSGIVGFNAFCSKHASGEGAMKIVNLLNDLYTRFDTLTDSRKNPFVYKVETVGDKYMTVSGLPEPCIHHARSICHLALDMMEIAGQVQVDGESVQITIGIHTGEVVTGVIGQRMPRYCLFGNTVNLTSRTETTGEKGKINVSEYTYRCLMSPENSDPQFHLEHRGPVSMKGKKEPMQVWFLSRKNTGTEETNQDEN
T1 sequence (P19686 1-690): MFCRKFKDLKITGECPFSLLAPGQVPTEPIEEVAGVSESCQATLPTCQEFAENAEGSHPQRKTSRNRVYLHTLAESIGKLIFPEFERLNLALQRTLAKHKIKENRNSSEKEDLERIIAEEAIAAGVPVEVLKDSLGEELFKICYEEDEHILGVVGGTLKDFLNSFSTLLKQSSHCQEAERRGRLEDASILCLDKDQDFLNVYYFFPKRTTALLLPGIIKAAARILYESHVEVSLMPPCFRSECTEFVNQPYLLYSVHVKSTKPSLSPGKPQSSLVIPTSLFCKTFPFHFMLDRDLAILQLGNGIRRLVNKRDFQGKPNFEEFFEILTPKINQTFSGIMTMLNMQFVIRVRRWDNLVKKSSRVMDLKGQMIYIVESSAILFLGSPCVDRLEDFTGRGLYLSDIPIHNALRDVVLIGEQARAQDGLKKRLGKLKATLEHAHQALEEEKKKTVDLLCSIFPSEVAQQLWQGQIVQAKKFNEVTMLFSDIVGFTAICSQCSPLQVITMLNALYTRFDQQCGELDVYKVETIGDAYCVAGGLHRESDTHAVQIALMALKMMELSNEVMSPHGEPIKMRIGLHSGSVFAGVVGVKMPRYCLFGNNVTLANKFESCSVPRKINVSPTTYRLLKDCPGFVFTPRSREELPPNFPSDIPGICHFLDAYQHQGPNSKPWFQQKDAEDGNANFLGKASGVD
Assay type: cell-based
In short: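 Cell-based reporter assay with recombinant guanylate cyclase expressed in a reporter cell line, per a published method. Activity reported as minimal effective concentration (MEC), in some cases as the mean of individual determinations.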

Point of comparison: `Cc1nc2c(OCc3c(F)cccc3F)cccn2c1C(=O)NCCC1(O)CCCC1` [Example 117, 8-[(2,6-difluorobenzyl)oxy]-N-[2-(1-hydroxycyclopentyl)ethyl]-2-methylimidazo[1,2-a]pyridine-3-carboxamide], “MEC (minimal effective concentration)” value 0.03 µM. Against it:
- Cc1nc2c(OCC3CCCCC3)cccn2c1C(=O)NCCCCO [Example 74, 8-(cyclohexylmethoxy)-N-(4-hydroxybutyl)-2-methylimidazo[1,2-a]pyridine-3-carboxamide] — 6.7-fold higher, 0.2 µM
- Cc1nc2c(OCC3CCCCC3)cccn2c1C(=O)N[C@@H](C)CO [Example 75, 8-(cyclohexylmethoxy)-N-[(2S)-1-hydroxypropan-2-yl]-2-methylimidazo[1,2-a]pyridine-3-carboxamide] — 7.3-fold higher, 0.22 µM
- Cc1nc2c(OCC3CCCCC3)cccn2c1C(=O)NCCO [Example 76, 8-(cyclohexylmethoxy)-N-(2-hydroxyethyl)-2-methylimidazo[1,2-a]pyridine-3-carboxamide formate] — 10-fold higher, 0.3 µM
- Cc1nc2c(OCC3CCCCC3)cccn2c1C(=O)NC(CO)(CO)CO [Example 77, 8-(cyclohexylmethoxy)-N-[1,3-dihydroxy-2-(hydroxymethyl)propan-2-yl]-2-methylimidazo[1,2-a]pyridine-3-carboxamide formate] — 10-fold higher, 0.3 µM
- COCC(O)CNC(=O)c1c(C)nc2c(OCC3CCCCC3)cccn12 (stereo not shown) [Example 79, 8-(cyclohexylmethoxy)-N-(2-hydroxy-3-methoxypropyl)-2-methylimidazo[1,2-a]pyridine-3-carboxamide] — 10-fold higher, 0.3 µM
- Cc1nc2c(OCC3CCCCC3)cccn2c1C(=O)NC[C@@H](O)CO [Example 80, 8-(cyclohexylmethoxy)-N-[(2R)-2,3-dihydroxypropyl]-2-methylimidazo[1,2-a]pyridine-3-carboxamide] — 10-fold higher, 0.3 µM
- Cc1nc2c(OCC3CCCCC3)cccn2c1C(=O)NCCCO [Example 82, 8-(cyclohexylmethoxy)-N-(3-hydroxypropyl)-2-methylimidazo[1,2-a]pyridine-3-carboxamide] — 10-fold higher, 0.3 µM
- Cc1nc2c(OCC3CCCCC3)cccn2c1C(=O)NC1CCCC1O (stereo not shown) [Example 83, 8-(cyclohexylmethoxy)-N-(2-hydroxycyclopentyl)-2-methylimidazo[1,2-a]pyridine-3-carboxamide] — 10-fold higher, 0.3 µM
- Cc1nc2c(OCC3CCCCC3)cccn2c1C(=O)NC(C)CO (stereo not shown) [Example 84, 8-(cyclohexylmethoxy)-N-(1-hydroxypropan-2-yl)-2-methylimidazo[1,2-a]pyridine-3-carboxamide] — 10-fold higher, 0.3 µM
- Cc1nc2c(OCC3CCCCC3)cccn2c1C(=O)NC(CO)CO [Example 85, 8-(cyclohexylmethoxy)-N-(1,3-dihydroxypropan-2-yl)-2-methylimidazo[1,2-a]pyridine-3-carboxamide] — 13-fold higher, 0.38 µM
- Cc1nc2c(OCC3CCCCC3)cccn2c1C(=O)NCCOCCO [Example 86, 8-(cyclohexylmethoxy)-N-[2-(2-hydroxyethoxy)ethyl]-2-methylimidazo[1,2-a]-pyridine-3-carboxamide] — 22-fold higher, 0.65 µM
- Cc1nc2c(OCC3CCCCC3)cccn2c1C(=O)NC(C)(C)C(C)O (stereo not shown) [Example 87, 8-(cyclohexylmethoxy)-N-(3-hydroxy-2-methylbutan-2-yl)-2-methylimidazo[1,2-a]pyridine-3-carboxamide] — 33-fold higher, 1.0 µM
- CC[C@@H](CO)NC(=O)c1c(C)nc2c(OCC3CCCCC3)cccn12 [Example 88, 8-(cyclohexylmethoxy)-N-[(2S)-1-hydroxybutan-2-yl]-2-methylimidazo[1,2-a]pyridine-3-carboxamide] — 33-fold higher, 1.0 µM
- CCC[C@@H](CO)NC(=O)c1c(C)nc2c(OCC3CCCCC3)cccn12 [Example 89, 8-(cyclohexylmethoxy)-N-[(2S)-1-hydroxypentan-2-yl]-2-methylimidazo[1,2-a]pyridine-3-carboxamide] — 33-fold higher, 1.0 µM
- CSCC[C@@H](CO)NC(=O)c1c(C)nc2c(OCC3CCCCC3)cccn12 [Example 90, 8-(cyclohexylmethoxy)-N-[(2S)-1-hydroxy-4-(methylsulphanyl)butan-2-yl]-2-methylimidazo[1,2-a]pyridine-3-carboxamide] — 33-fold higher, 1.0 µM
- CC[C@H](C)[C@@H](CO)NC(=O)c1c(C)nc2c(OCC3CCCCC3)cccn12 [Example 91, 8-(cyclohexylmethoxy)-N-[(2S,3S)-1-hydroxy-3-methylpentan-2-yl]-2-methylimidazo[1,2-a]pyridine-3-carboxamide] — 33-fold higher, 1.0 µM
- Cc1nc2c(OCC3CCCCC3)cccn2c1C(=O)NC1(CO)CCCC1 [Example 92, 8-(cyclohexylmethoxy)-N-[1-(hydroxymethyl)cyclopentyl]-2-methylimidazo[1,2-a]pyridine-3-carboxamide] — 33-fold higher, 1.0 µM
- Cc1nc2c(OCC3CCCCC3)cccn2c1C(=O)N[C@H](CO)C(C)C [Example 93, 8-(cyclohexylmethoxy)-N-[(2S)-1-hydroxy-3-methylbutan-2-yl]-2-methylimidazo[1,2-a]pyridine-3-carboxamide] — 33-fold higher, 1.0 µM
- Cc1nc2c(OCC3CCCCC3)cccn2c1C(=O)NC(CO)COC(C)(C)C (stereo not shown) [Example 94, N-(1-tert-butoxy-3-hydroxypropan-2-yl)-8-(cyclohexylmethoxy)-2-methylimidazo[1,2-a]-pyridine-3-carboxamide] — 100-fold higher, 3.0 µM
- Cc1nc2c(OCC3CCCCC3)cccn2c1C(=O)N[C@H](CO)CC(C)C [Example 95, 8-(cyclohexylmethoxy)-N-[(2S)-1-hydroxy-4-methylpentan-2-yl]-2-methylimidazo[1,2-a]pyridine-3-carboxamide] — 100-fold higher, 3.0 µM
- CCC(C)[C@H](CO)NC(=O)c1c(C)nc2c(OCC3CCCCC3)cccn12 (stereo partly drawn) [Example 96, 8-(cyclohexylmethoxy)-N-[(2R)-1-hydroxy-3-methylpentan-2-yl]-2-methylimidazo[1,2-a]pyridine-3-carboxamide] — 100-fold higher, 3.0 µM
- Cc1nc2c(OCC3CCC3)cccn2c1C(=O)NCCC1(O)CCCC1 [Example 97, 8-(cyclobutylmethoxy)-N-[2-(1-hydroxycyclopentyl)ethyl]-2-methylimidazo[1,2-a]pyridine-3-carboxamide] — 33-fold higher, 1.0 µM
- Cc1nc2c(OCC3CCC3)cccn2c1C(=O)NCCOCCO [Example 98, 8-(cyclobutylmethoxy)-N-[2-(2-hydroxyethoxy)ethyl]-2-methylimidazo[1,2-a]pyridine-3-carboxamide] — 100-fold higher, 3.0 µM
- Cc1nc2c(OCC3CCC3)cccn2c1C(=O)NCCC1(O)CCCCC1 [Example 99, 8-(cyclobutylmethoxy)-N-[2-(1-hydroxycyclohexyl)ethyl]-2-methylimidazo[1,2-a]pyridine-3-carboxamide] — 100-fold higher, 3.0 µM
- [2H]C([2H])(Oc1cccn2c(C(=O)N[C@@H](CO)CCCC)c(C)nc12)c1c(F)cccc1F [Example 115, 8-{[(2,6-difluorophenyl)(^2H2)methyl]oxy}-N-[(2R)-1-hydroxyhexan-2-yl]-2-methylimidazo[1,2-a]pyridine-3-carboxamide] — 3-fold lower, 0.01 µM
- Cc1nc2c(OCc3c(F)cccc3F)cccn2c1C(=O)NCCC1(O)CCCCC1 [Example 116, 8-[(2,6-difluorobenzyl)oxy]-N-[2-(1-hydroxycyclohexyl)ethyl]-2-methylimidazo[1,2-a]pyridine-3-carboxamide] — 10-fold higher, 0.3 µM
- Cc1nc2c(OCc3c(F)cccc3F)cccn2c1C(=O)N[C@H](C)CO [Example 118, 8-[(2,6-difluorobenzyl)oxy]-N-[(2R)-1-hydroxypropan-2-yl]-2-methylimidazo[1,2-a]-pyridine-3-carboxamide] — 10-fold higher, 0.3 µM
